Assay results reported in ChEMBL document CHEMBL1155176, “Investigating Toll-like receptor agonists for potential to treat hepatitis C virus infection” (Antimicrob Agents Chemother, 2007).
Activity calls are given as the source filed them. The calls are words filed in the database; no cut-off is given here. Residues, ends and D or L forms follow the SMILES beside them. *: point of attachment. X1 = CCCCCCCCCCCCCCCC(=O)OCC(C*)OC(=O)CCCCCCCCCCCCCCC; Palmitoyl = CCCCCCCCCCCCCCCC(=O)*

What was measured:
Hepatitis C virus [1] = assay: Antiviral activity against HCV infected human Huh7 replicon cells treated with 200 nM drug-induced human PBMC supernatants assessed as viral levels in presence of type I IFN receptor antibody by luciferase assay; format: functional, organism-based; conditions: Hepacivirus hominis
Hepatitis C virus [2] = assay: Antiviral activity against HCV infected human Huh7 replicon cells treated with drug-induced human PBMC supernatants assessed as viral levels by luciferase assay; format: functional, organism-based; conditions: Hepacivirus hominis
PBMC [3] = assay: Increase in 2',5'-oligoadenylate synthase level in human PBMC after 24 hrs by PCR method relative to control; format: functional, cell-based
PBMC [4] = assay: Toxic induction of IL6 level in human PBMC assessed as drug level causing maximal cytokine induction after 24 hrs relative to control; format: toxicity, cell-based
PBMC [5] = assay: Induction of IFNalpha2a level in human PBMC assessed as drug level causing maximal cytokine induction after 24 hrs relative to control; format: functional
PBMC [6] = assay: Toxic induction of TNFalpha level in human PBMC assessed as drug level causing maximal cytokine induction after 24 hrs relative to control; format: toxicity, cell-based
PBMC [7] = assay: Toxic induction of IL1-beta level in human PBMC assessed as drug level causing maximal cytokine induction after 24 hrs relative to control; format: toxicity, cell-based
PBMC [8] = assay: (§1) Increase in IFNalpha level in human PBMC after 24 hrs relative to control; format: functional, cell-based
Hepatitis C virus [9] = assay: Antiviral activity against HCV infected human Huh7 replicon cells assessed as viral levels by luciferase assay; format: functional, organism-based; conditions: Hepacivirus hominis; Huh-7
Hepatitis C virus [10] = assay: Antiviral activity against HCV infected human Huh7 replicon cells treated with 3 uM drug-induced human PBMC supernatants assessed as viral levels in presence of type I IFN receptor antibody by luciferase assay; format: functional, organism-based; conditions: Hepacivirus hominis
Hepatitis C virus [11] = assay: Antiviral activity against HCV infected human Huh7 replicon cells treated with 20 uM drug-induced human PBMC supernatants assessed as viral levels in presence of type I IFN receptor antibody by luciferase assay; format: functional, organism-based; conditions: Hepacivirus hominis
PBMC [12] = assay: Toxicity assessed as increase in TNFalpha level in human PBMC after 6 hrs relative to control; format: cell-based
Hepatitis C virus [13] = assay: Antiviral activity against HCV infected human Huh7 replicon cells treated for 48 hrs with drug-induced single donor human PBMC supernatants assessed as viral levels by luciferase assay; format: functional, organism-based, Hepacivirus hominis
PBMC [14] = assay: as §1; format: functional, cell-based; remark: listed apart in the source
Hepatitis C virus [15] = assay: Antiviral activity against HCV infected human Huh7 replicon cells treated for 48 hrs with drug-induced mixed donor human PBMC supernatants assessed as viral levels by luciferase assay; format: functional, organism-based, Hepacivirus hominis
PBMC [16] = assay: Increase in 2',5'-oligoadenylate synthase level in human PBMC after 24 hrs relative to control; format: functional, cell-based
Hepatitis C virus [17] = assay: Antiviral activity against HCV infected human Huh7 replicon cells treated with 100 nM drug-induced human PBMC supernatants assessed as viral levels in presence of type I IFN receptor antibody by luciferase assay; format: functional, organism-based; conditions: Hepacivirus hominis
PBMC [18] = assay: Toxicity assessed as increase in IL6 level in human PBMC after 24 hrs relative to control; format: functional, cell-based
Hepatitis C virus [19] = assay: Antiviral activity against HCV infected human Huh7 replicon cells treated for 24 hrs with drug-induced human PBMC supernatants assessed as viral levels by luciferase assay; format: functional, organism-based; conditions: Hepacivirus hominis

Row | Structure (SMILES) | Activity (Hepatitis C virus [1]) | Activity (Hepatitis C virus [2]) | Activity (PBMC [3]) | Activity (PBMC [4]) | Activity (PBMC [5]) | Activity (PBMC [6]) | Activity (PBMC [7]) | Activity (PBMC [8]) | Activity (Hepatitis C virus [9]) | Activity (Hepatitis C virus [10]) | Activity (Hepatitis C virus [11]) | fold change (FC) (PBMC [12]) | EC50 (Hepatitis C virus [13]) [nM] | Activity (PBMC [14]) | EC50 (Hepatitis C virus [15]) [nM] | Activity (PBMC [16]) | Activity (Hepatitis C virus [17]) | Activity (PBMC [18]) | Activity (Hepatitis C virus [19])
1 | COCCOc1nc(N)c2[nH]c(=O)n(Cc3ccccc3)c2n1 | inactive | Active | Dose-dependent effect | 1 µM | 0.1 µM | 1 µM | 1 µM | Dose-dependent effect | inactive | – | – | – | – | – | – | – | – | – | –
2 | CCCc1nc2c(N)nc3ccccc3c2s1 | – | Active | Dose-dependent effect | 3.3 µM | 10 µM | 10 µM | 3.3 µM | Dose-dependent effect | inactive | inactive | – | – | – | – | – | – | – | – | –
3 | Cc1cn([C@H]2C[C@H](OP(=O)(O)OC[C@H]3O[C@@H](n4cnc5c(=O)[nH]c(N)nc54)[C@H](O)[C@@H]3OP(=O)(O)OC[C@H]3O[C@@H](n4cc(C)c(=O)[nH]c4=O)C[C@@H]3OP(=O)(O)OC[C@H]3O[C@@H](n4cc(C)c(=O)[nH]c4=O)C[C@@H]3OP(=O)(O)OC[C@H]3O[C@@H](n4cc(C)c(=O)[nH]c4=O)C[C@@H]3OP(=O)(O)OC[C@H]3O[C@@H](n4cc(C)c(=O)[nH]c4=O)C[C@@H]3OP(=O)(O)OC[C@H]3O[C@@H](n4cnc5c(=O)[nH]c(N)nc54)[C@H](O)[C@@H]3OP(=O)(S)OC[C@H]3O[C@@H](n4ccc(N)nc4=O)[C@H](O)[C@@H]3OP(=O)(O)OC[C@H]3O[C@@H](n4cc(C)c(=O)[nH]c4=O)C[C@@H]3OP(=O)(O)OC[C@H]3O[C@@H](n4cc(C)c(=O)[nH]c4=O)C[C@@H]3O)[C@@H](COP(=O)(O)OC[C@H]3O[C@@H](n4cnc5c(=O)[nH]c(N)nc54)[C@H](O)[C@@H]3OP(O)(=S)OC[C@H]3O[C@@H](n4ccc(N)nc4=O)[C@H](O)[C@@H]3OP(=O)(O)OC[C@H]3O[C@@H](n4cc(C)c(=O)[nH]c4=O)C[C@@H]3OP(=O)(O)OC[C@H]3O[C@@H](n4cnc5c(=O)[nH]c(N)nc54)[C@H](O)[C@@H]3OP(=O)(O)OC[C@H]3O[C@@H](n4cc(C)c(=O)[nH]c4=O)C[C@@H]3OP(=O)(O)OC[C@H]3O[C@@H](n4cc(C)c(=O)[nH]c4=O)C[C@@H]3OP(=O)(O)OC[C@H]3O[C@@H](n4cc(C)c(=O)[nH]c4=O)C[C@@H]3OP(=O)(O)OC[C@H]3O[C@@H](n4cc(C)c(=O)[nH]c4=O)C[C@@H]3OP(=O)(O)OC[C@H]3O[C@@H](n4cnc5c(=O)[nH]c(N)nc54)[C@H](O)[C@@H]3OP(O)(=S)OC[C@H]3O[C@@H](n4ccc(N)nc4=O)[C@H](O)[C@@H]3OP(=O)(O)OC[C@H]3O[C@@H](n4cc(C)c(=O)[nH]c4=O)C[C@@H]3OP(=O)(O)OC[C@H]3O[C@@H](n4cc(C)c(=O)[nH]c4=O)C[C@@H]3O)O2)c(=O)[nH]c1=O (some centres not stated) | – | Active | Dose-dependent effect | 0.2 µM | 0.2 µM | 5 µM | 5 µM | Dose-dependent effect | inactive | – | – | – | – | – | – | – | – | – | –
4 | CCCCCCCCCCCCCCCC(=O)N[C@@H](CSCC(COC(=O)CCCCCCCCCCCCCCC)OC(=O)CCCCCCCCCCCCCCC)C(=O)N[C@@H](CO)C(=O)N[C@@H](CCCCN)C(=O)N[C@@H](CCCCN)C(=O)N[C@@H](CCCCN)C(=O)N[C@@H](CCCCN)C(=O)O (some centres not stated) (Palmitoyl-C(X1)SKKKK-OH) | – | Active | – | 1 µM | 0.3 µM | 0.1 µM | 1 µM | – | inactive | – | – | – | – | – | – | – | – | – | –
5 | CC(C)Cn1cnc2c(N)nc3ccccc3c21 [IMIQUIMOD] | – | Active | Dose-dependent effect | 1 µg/mL | 1 µg/mL | 1 µg/mL | 0.1 µg/mL | Dose-dependent effect | inactive | – | inactive | – | – | – | – | – | – | – | –
6 | CCOCc1nc2c(N)nc3ccccc3c2n1CC(C)(C)O [RESIQUIMOD] | – | Active | Dose-dependent effect | 1 µM | 0.1 µM | 1 µM | 1 µM | Dose-dependent effect | inactive | – | – | 2.5 | 26.5 | Active | 24 | Active | inactive | Active | Active
